Data taken from ChEMBL document CHEMBL1151947, “Synthesis, potency, and in vivo evaluation of 2-piperazin-1-ylquinoline analogues as dual serotonin reuptake inhibitors and serotonin 5-HT1A receptor antagonists” (J Med Chem, 2009).

Tests used:
[1] = biological target: Sodium-dependent serotonin transporter (Rattus norvegicus, UniProt P31652)
Description: Displacement of [3H]paroxetine from 5HT transporter in rat cortical membrane

[2] = biological target: T1, 5-hydroxytryptamine receptor 1A (Homo sapiens, UniProt P08908); assay: biochemical
T1 sequence (P08908 whole entry): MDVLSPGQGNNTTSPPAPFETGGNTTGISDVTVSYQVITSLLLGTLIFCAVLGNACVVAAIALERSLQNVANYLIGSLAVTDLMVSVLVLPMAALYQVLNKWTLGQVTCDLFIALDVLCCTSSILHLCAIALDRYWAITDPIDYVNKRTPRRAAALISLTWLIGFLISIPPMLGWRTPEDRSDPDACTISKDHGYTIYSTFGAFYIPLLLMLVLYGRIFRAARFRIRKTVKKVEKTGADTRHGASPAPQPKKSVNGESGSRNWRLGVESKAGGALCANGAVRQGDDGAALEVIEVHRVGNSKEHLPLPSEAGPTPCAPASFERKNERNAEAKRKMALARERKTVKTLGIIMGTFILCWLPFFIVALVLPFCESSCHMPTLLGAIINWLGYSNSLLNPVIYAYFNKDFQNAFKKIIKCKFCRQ
Description: Displacement of [3H]8-OH-DPAT from human 5HT1A receptor expressed in CHO cells

[3] = biological target: T2, 5-hydroxytryptamine receptor 1A (Homo sapiens) (UniProt P08908); assay: Antagonist activity at human 5HT1A receptor expressed in CHO cells assessed as inhibition of [35S]GTPgammaS binding relative to control; format: functional, cell-based
T2 sequence (whole entry): T1 sequence (P08908 whole entry)

[4] = biological target: T1, 5-hydroxytryptamine receptor 1A
Description: Antagonist activity at human 5HT1A receptor expressed in CHO cells assessed as stimulation of [35S]GTPgammaS binding

[5] = biological target: Sodium-dependent serotonin transporter (Rattus norvegicus) (UniProt P31652); assay: Ratio Ki for drug to Ki for (2S)-8-Methyl-2-{[4-(6-nitroquinolin-2-yl)piperazin-1-yl]- methyl}-2,3-dihydro[1,4]dioxino[2,3-f ]quinoline against 5HT transporter in rat cortical membrane; format: cell membranes
[6] = biological target: Sodium-dependent serotonin transporter (Homo sapiens, UniProt P31645); assay: Antagonist activity at human 5HT transporter expressed in staurosporine treated human JAR cells; format: functional, cell-based
Chain of Sodium-dependent serotonin transporter (Homo sapiens, UniProt P31645) (P31645 whole entry): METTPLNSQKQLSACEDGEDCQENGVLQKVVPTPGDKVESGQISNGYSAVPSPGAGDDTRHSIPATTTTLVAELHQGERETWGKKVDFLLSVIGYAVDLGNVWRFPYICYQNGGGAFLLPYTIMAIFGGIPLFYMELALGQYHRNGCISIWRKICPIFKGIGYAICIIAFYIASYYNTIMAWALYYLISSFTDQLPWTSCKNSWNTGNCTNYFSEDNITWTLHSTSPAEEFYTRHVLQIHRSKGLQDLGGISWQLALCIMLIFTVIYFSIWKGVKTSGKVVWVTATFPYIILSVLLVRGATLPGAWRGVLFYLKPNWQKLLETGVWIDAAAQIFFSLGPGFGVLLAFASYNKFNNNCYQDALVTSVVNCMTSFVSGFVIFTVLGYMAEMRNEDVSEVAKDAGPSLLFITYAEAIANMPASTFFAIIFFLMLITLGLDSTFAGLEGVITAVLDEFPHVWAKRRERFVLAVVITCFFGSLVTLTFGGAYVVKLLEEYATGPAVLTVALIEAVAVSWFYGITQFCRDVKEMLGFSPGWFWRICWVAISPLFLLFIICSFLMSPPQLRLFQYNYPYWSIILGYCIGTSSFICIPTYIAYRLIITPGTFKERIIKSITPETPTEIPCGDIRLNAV

Chain of Sodium-dependent serotonin transporter (Rattus norvegicus, UniProt P31652) (P31652 whole entry): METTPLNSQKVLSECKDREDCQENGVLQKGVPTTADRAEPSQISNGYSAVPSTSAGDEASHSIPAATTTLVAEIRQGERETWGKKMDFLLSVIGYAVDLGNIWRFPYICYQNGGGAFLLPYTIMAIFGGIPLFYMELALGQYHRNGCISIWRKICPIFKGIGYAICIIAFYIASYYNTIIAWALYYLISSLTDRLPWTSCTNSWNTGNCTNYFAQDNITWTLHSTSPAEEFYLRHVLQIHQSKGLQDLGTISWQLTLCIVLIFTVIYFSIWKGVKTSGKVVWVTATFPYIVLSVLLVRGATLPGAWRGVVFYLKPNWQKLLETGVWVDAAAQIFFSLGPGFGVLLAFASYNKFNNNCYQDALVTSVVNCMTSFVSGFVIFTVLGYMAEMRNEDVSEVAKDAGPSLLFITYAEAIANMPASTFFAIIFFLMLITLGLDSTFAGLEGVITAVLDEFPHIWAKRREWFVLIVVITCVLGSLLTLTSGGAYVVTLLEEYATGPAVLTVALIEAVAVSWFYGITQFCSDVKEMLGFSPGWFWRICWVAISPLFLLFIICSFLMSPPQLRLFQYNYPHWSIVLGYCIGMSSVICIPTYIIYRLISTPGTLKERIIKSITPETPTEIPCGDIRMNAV
Chain of Sodium-dependent serotonin transporter (Rattus norvegicus) (P31652 whole entry): as above

SMILES	Ki [1] [nM]	Ki [2] [nM]	Imax [3] [%]	IC50 [4] [nM]	Ratio Ki [5]	IC50 [6] [nM]
Cc1ccc2c3c(ccc2n1)OC[C@H](CN1CCN(c2ccc4ccccc4n2)C[C@@H]1C)O3	10.3		76.5	1900		
Cc1ccc2c3c(ccc2n1)OC[C@H](CN1CCN(c2ccc4cc(Cl)ccc4n2)CC1)O3	0.88		62	781		
Cc1ccc2c3c(ccc2n1)OC[C@H](CN1CCN(c2ccc4cc(OC(F)(F)F)ccc4n2)CC1)O3	148	172	85	588		
Cc1ccc2c3c(ccc2n1)OC[C@H](CN1CCN(c2ccc4cc([N+](=O)[O-])ccc4n2)CC1)O3			79	294	9	
Cc1ccc2c3c(ccc2n1)OC[C@H](CN1CCN(c2ccc4ccccc4n2)CC1)O3	75		100	4870		
Cc1ccc2c3c(ccc2n1)OC[C@H](CN1CCN(c2ccc4cc(C#N)ccc4n2)C[C@H]1C)O3	89.6	2.8	92	180		
Cc1ccc2c3c(ccc2n1)OC[C@H](CN1CCN(c2ccc4cc(F)ccc4n2)CC1)O3	66	32.9	100	2170		
Cc1ccc2c3c(ccc2n1)OC[C@H](CN1CC=C(c2c[nH]c4ccccc24)CC1)O3	2.34	3.02	98.3	56.7		145

The remaining molecules from weak to strong by IC50 [4], led by results:

Ki [1] [nM]	Ki [2] [nM]	Imax [3] [%]	IC50 [4] [nM]	Ratio Ki [5]	SMILES	IC50 [6] [nM]
17		100	164		Cc1ccc2c3c(ccc2n1)OC[C@H](CN1CCN(c2ccc4cc(C(N)=O)ccc4n2)CC1)O3	
12.7		96	156		Cc1ccc2c3c(ccc2n1)OC[C@H](CN1CCN(c2ccc4cc(Br)ccc4n2)CC1)O3	
		85	117		Cc1ccc2c3c(ccc2n1)OC[C@H](CN1CCN(c2ccc4ccccc4n2)C[C@H]1C)O3	
3.9	1.5	74	70		Cc1ccc2c3c(ccc2n1)OC[C@H](CN1CCCN(c2ccc4cc(F)ccc4n2)CC1)O3	
7.4	6.8	58	70		Cc1ccc2c3c(ccc2n1)OC[C@H](CN1CCCN(c2ccc4ccccc4n2)CC1)O3	
	2	53	58		Cc1ccc2c3c(ccc2n1)OC[C@H](CN1CCCN(c2ccc4cc(C#N)ccc4n2)CC1)O3	
